# Where “and” joins values, the source holds several entries; their conditions need not be identical. Identical values can stand only once.
# Tested on: 192522-019-R-J2-PDC complex tumor spheroid viability
# Experiment: Anticancer human tumor 192522-019-R-J2-PDC patient-derived colon adenocarcinoma cell line growth inhibition [POLQ]
# Settings: for viability, T/C: stronger effect = lower value
# Procedure, shortened: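 Growth inhibition in 3D: complex spheroids (tumor PDC, HUVEC, MSC) treated with POLQ inhibitor combinations; where Cmax unknown, highest tested concentration 10 microM, except SN-38 at 1 microM.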
# 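Also: spheroids exposed to drugs for seven days before reading.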
# 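For viability, T/C in this document: 100% = DMSO vehicle control viability in luminescence.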
smiles,measurement,setting,value
CC1COCCN1c1cc(C2(S(C)(=N)=O)CC2)nc(-c2ccnc3[nH]ccc23)n1 (centres undefined) + Cc1cccc(N(C)C(=O)C2C(O)CCN2c2nc(C)cc(C(F)(F)F)c2C#N)c1,IC50,"curve of first compound, second compound 0.0316 µM",4.75 µM
same,IC50,"curve of first compound, second compound 0.1 µM",4.15 µM
same,IC50,"curve of first compound, second compound 0.316 µM",5.85 µM
same,IC50,"curve of first compound, second compound 1 µM",5.72 µM
same,IC50,"curve of first compound, second compound 3.16 µM",7.68 µM
same,IC50,"curve of first compound, second compound 10 µM",7.21 µM
same,"viability, T/C","second compound 0.0316 µM, first compound 0.0316 µM",112%
same,"viability, T/C","second compound 0.0316 µM, first compound 0.1 µM",88%
same,"viability, T/C","second compound 0.0316 µM, first compound 0.316 µM",92.8%
same,"viability, T/C","second compound 0.0316 µM, first compound 1 µM",83.8%
same,"viability, T/C","second compound 0.0316 µM, first compound 3.16 µM",59.9%
same,"viability, T/C","second compound 0.0316 µM, first compound 10 µM",30.1%
same,"viability, T/C","second compound 0.1 µM, first compound 0.0316 µM",101%
same,"viability, T/C","second compound 0.1 µM, first compound 0.1 µM",97.8%
same,"viability, T/C","second compound 0.1 µM, first compound 0.316 µM",97.7%
same,"viability, T/C","second compound 0.1 µM, first compound 1 µM",89.2%
same,"viability, T/C","second compound 0.1 µM, first compound 3.16 µM",54.8%
same,"viability, T/C","second compound 0.1 µM, first compound 10 µM",34.2%
same,"viability, T/C","second compound 0.316 µM, first compound 0.0316 µM",106%
same,"viability, T/C","second compound 0.316 µM, first compound 0.1 µM",105%
same,"viability, T/C","second compound 0.316 µM, first compound 0.316 µM",105%
same,"viability, T/C","second compound 0.316 µM, first compound 1 µM",90.1%
same,"viability, T/C","second compound 0.316 µM, first compound 3.16 µM",64.5%
same,"viability, T/C","second compound 0.316 µM, first compound 10 µM",37.6%
same,"viability, T/C","second compound 1 µM, first compound 0.0316 µM",97.6%
same,"viability, T/C","second compound 1 µM, first compound 0.1 µM",99.2%
same,"viability, T/C","second compound 1 µM, first compound 0.316 µM",96%
same,"viability, T/C","second compound 1 µM, first compound 1 µM",98.1%
same,"viability, T/C","second compound 1 µM, first compound 3.16 µM",64.3%
same,"viability, T/C","second compound 1 µM, first compound 10 µM",36.5%
same,"viability, T/C","second compound 3.16 µM, first compound 0.0316 µM",104%
same,"viability, T/C","second compound 3.16 µM, first compound 0.1 µM",100%
same,"viability, T/C","second compound 3.16 µM, first compound 0.316 µM",103%
same,"viability, T/C","second compound 3.16 µM, first compound 1 µM",91.9%
same,"viability, T/C","second compound 3.16 µM, first compound 3.16 µM",78.7%
same,"viability, T/C","second compound 3.16 µM, first compound 10 µM",41.4%
same,"viability, T/C","second compound 10 µM, first compound 0.0316 µM",95.5%
same,"viability, T/C","second compound 10 µM, first compound 0.1 µM",106%
same,"viability, T/C","second compound 10 µM, first compound 0.316 µM",113%
same,"viability, T/C","second compound 10 µM, first compound 1 µM",98.9%
same,"viability, T/C","second compound 10 µM, first compound 3.16 µM",75.7%
same,"viability, T/C","second compound 10 µM, first compound 10 µM",39.8%
CC(=O)O[C@H]1C(=O)[C@@]2(C)[C@H]([C@H](OC(=O)c3ccccc3)[C@]3(O)C[C@H](OC(=O)[C@H](O)[C@@H](NC(=O)c4ccccc4)c4ccccc4)C(C)=C1C3(C)C)[C@]1(OC(C)=O)CO[C@@H]1C[C@@H]2O,"viability, T/C",compound 0.00949 µM,90.9% and 93% and 91.4%
same,"viability, T/C",compound 0.03 µM,61.5% and 61.7% and 71.9%
same,"viability, T/C",compound 0.0949 µM,56.5% and 58.9% and 54.1%
same,"viability, T/C",compound 0.3 µM,54.5% and 54.7% and 52.9%
same,"viability, T/C",compound 0.949 µM,54.3% and 56.4% and 57.7%
same,"viability, T/C",compound 3 µM,53% and 61.1% and 54.8%
same,IC50,curve of compound,> 3 µM

# Source: PubChem BioAssay AID1963850 (Molecular Pharmacology Branch, DTP, NCI, 2024)
